Data as given in publication PMC11189555, “Aryl amino acetamides prevent Plasmodium falciparum ring development via targeting the lipid-transfer protein PfSTART1” (Nature Communications, 2024).
“And” between values parts separate entries of the source, which are not always exact repeats. Equal values may be shown once.

System: 3D7, SLI- and CR- WT, N309K, N330K parasites
Assay: Parasite growth over 72 h in the presence of GlcN (LDH)
Type: cell-based, Plasmodium falciparum
Conditions: for Growth over 72 h, 0.25 mM / 0 mM / Growth over 72 h, 2.5 mM / 0 mM: biological replicates 1-4; for Growth over 72 h (mean of raw readings) / Growth over 72 h normalised to 0 mM GlcN (= 100): biological replicates 1-3; for Growth over 72 h (raw reading): biological replicates 1-3, DMSO data of M833 and W991 sets
Experimental: thereafter called SLI-WT, SLI-N309K and SLI-N330K). gDNA was extracted and a PCR was conducted to check for correct integration using primers START_5’UTR.F and START_Seq.R (Table S2); the same PCR on 3D7 gDNA was used as a control, as no bands should be observed in the 3D7 samples. (B) The sequencing of the PCR […]
and that SLI-N309K and SLI-N330K contain the correct mutations. (C) Growth of 3D7, SLI-WT, -N309K or -N330K over 72 h in the presence of 0, 0.25 or 2.5 mM GlcN was measured with an LDH assay. Growth was normalised to the 0 mM GlcN condition. n=4 biological replicates. Ordinary one-way ANOVA with Dunnett’s multiple comparison test (comparison to the 0 mM condition). **: p<0.005. ***: p<0.0005. ****: p<0.0001. (D) Similar to SLI parasites, CRISPR transfectant parasites were cloned:
CR-WT clone D2, CR-N309K clone C10 and CR-N330K clone B2, thereafter called CR-WT, CR-N309K and CR-N330K. A PCR was conducted to check for correct integration using primers START_5’UTR.F and START_IntR1; 3D7 gDNA was used […]
wild-type version of pfstart1, and that CR-N309K and CR-N330K contain the correct mutations. (F) Growth of 3D7, CR-WT, -N309K or -N330K over 72 h in the presence of 0, 0.25 or 2.5 mM GlcN was measured by LDH assay (same as (C); n=6 biological replicates). Source data are provided as a Source Data file. […]
and compound 4. Note that M-833 was first purchased from MolPort (MolPort -002-267-916) then made in-house at WEHI: the differences observed in EC50s across experiments are attributed to the different batches of M -833. For some experiments, 0, 0.25 or 2.5 mM of glucosamine (GlcN) was also added. Experiments were set up in technical duplicates or triplicates. Following a freeze -thaw cycle, lactate dehydrogenase (LDH) activity was assessed as an indicator of parasite growt h 5. 30 μL of parasite culture was incubated for 30 min in the dark with 75 μL Malstat mixture (0.1 M Tris pH 9.0, 20 g/L lactic acid, pH 7.5, 0.2% Triton-X100, 0.5 g/L acetylpyridine adenine dinucleotide (APAD, Sigma), 200 μg/mL nitroblue tetrazolium (NBT; Sigma), 1 μg/mL phenozine ethosulfate (PES; Sigma)). Absorbance was then measured at 650 nm, transformed using the formula below, plotted against the logarithm of the concentrations, and a non-linear regression (log(inhibitor) vs. response, variable slope) was calculated using GraphPad Prism to assess the half-inhibitory […]
Growth inhibition % = (1 − average(sample)− average(uRBC)) ∗ 100 […]
The DMSO samples were also used to assess growth of parasite in the presence of 0.25 and 2.5 mM GlcN (normalised by DMSO in 0 mM GlcN). […]

[1] = CR-N309K parasites, 0.25 mM GlcN
[2] = CR-N309K parasites, 2.5 mM GlcN
[3] = CR-N330K parasites, 0.25 mM GlcN
[4] = CR-N330K parasites, 2.5 mM GlcN

N[C@H]1C(O)O[C@H](CO)[C@@H](O)[C@@H]1O (stereo partly drawn) [GlcN, glucosamine]
Growth over 72 h, 0.25 mM / 0 mM (3D7, 0.25 mM GlcN): 98.6386 and 100.075 and 99.6504 and 92.7264 | Growth over 72 h, 2.5 mM / 0 mM (3D7, 2.5 mM GlcN): 77.3282 and 91.4546 and 81.2488 and 87.4334 | reduced growth (3D7, 2.5 mM GlcN, 72 h): ~ 5% | Growth over 72 h (mean of raw readings) (3D7 parasites, 0.25 mM GlcN): 0.1623 and 0.1668 and 0.4453 and 0.6687 and 0.4936 and 0.5657 | Growth over 72 h normalised to 0 mM GlcN (= 100) (3D7 parasites, 0.25 mM GlcN): 99.2357 and 96.4441 and 83.2336 and 124.534 and 89.0493 and 116.399 | Growth over 72 h (raw reading) (3D7 parasites, 0.25 mM GlcN): 0.1683 and 0.1751 and 0.4506 and 0.6702 and 0.5044 and 0.558 and 0.1563 and 0.1585 and 0.44 and 0.6673 and 0.4828 and 0.5734 | Growth over 72 h (mean of raw readings) (3D7 parasites, 2.5 mM GlcN): 0.1303 and 0.133 and 0.3936 and 0.3428 and 0.669 and 0.5661 | Growth over 72 h normalised to 0 mM GlcN (= 100) (3D7 parasites, 2.5 mM GlcN): 79.6393 and 76.9008 and 73.5607 and 61.8528 and 124.572 and 116.481 | Growth over 72 h (raw reading) (3D7 parasites, 2.5 mM GlcN): 0.137 and 0.138 and 0.4268 and 0.3683 and 0.6835 and 0.563 and 0.1235 and 0.128 and 0.3603 and 0.3174 and 0.6544 and 0.5692 | Growth over 72 h (mean of raw readings) [1]: 0.127 and 0.1406 and 0.5399 and 0.6825 and 0.5806 and 0.5768 | Growth over 72 h normalised to 0 mM GlcN (= 100) [1]: 83.6627 and 84.6177 and 96.1271 and 111.164 and 88.2706 and 96.8194 | Growth over 72 h (raw reading) [1]: 0.13 and 0.1405 and 0.5297 and 0.694 and 0.5709 and 0.5788 and 0.124 and 0.1406 and 0.55 and 0.6711 and 0.5903 and 0.5749 | Growth over 72 h (mean of raw readings) [2]: 0.0842 and 0.08195 and 0.3029 and 0.2482 and 0.3611 and 0.3044 | Growth over 72 h normalised to 0 mM GlcN (= 100) [2]: 55.4677 and 49.3377 and 53.9263 and 37.7271 and 58.8111 and 51.0826 | Growth over 72 h (raw reading) [2]: 0.0834 (2×) and 0.3049 and 0.2428 and 0.3713 and 0.3087 and 0.085 and 0.0805 and 0.3008 and 0.2535 and 0.3509 and 0.3 | growth less than in the absence of GlcN (CR-N309K, 2.5 mM GlcN, 72 h): 50% | Growth over 72 h (mean of raw readings) [3]: 0.2349 and 0.2489 and 0.3654 and 0.7776 and 0.3572 and 0.7298 | Growth over 72 h normalised to 0 mM GlcN (= 100) [3]: 94.757 and 83.1329 and 83.9922 and 102.755 and 71.8539 and 97.5734 | Growth over 72 h (raw reading) [3]: 0.2498 and 0.2614 and 0.3895 and 0.7636 and 0.4102 and 0.7252 and 0.2201 and 0.2364 and 0.3414 and 0.7917 and 0.3041 and 0.7344 | Growth over 72 h (mean of raw readings) [4]: 0.1315 and 0.1328 and 0.1893 and 0.172 and 0.7048 and 0.6593 | Growth over 72 h normalised to 0 mM GlcN (= 100) [4]: 53.0349 and 44.3554 and 43.5072 and 34.6042 and 93.1356 and 88.1543 | Growth over 72 h (raw reading) [4]: 0.1385 and 0.1375 and 0.1953 and 0.1767 and 0.7177 and 0.6721 and 0.1245 and 0.1281 and 0.1833 and 0.1673 and 0.692 and 0.6466 | Growth over 72 h (mean of raw readings) (CR-WT parasites, 0.25 mM GlcN): 0.2131 and 0.2403 and 0.4884 and 0.5805 and 0.5445 and 0.4768 | Growth over 72 h normalised to 0 mM GlcN (= 100) (CR-WT parasites, 0.25 mM GlcN): 94.7322 and 91.6651 and 102.262 and 415.2 and 101.567 and 345.382 | Growth over 72 h (raw reading) (CR-WT parasites, 0.25 mM GlcN): 0.2167 and 0.241 and 0.4948 and 0.5777 and 0.5446 and 0.4838 and 0.2095 and 0.2396 and 0.4819 and 0.5832 and 0.5444 and 0.4698 | Growth over 72 h (mean of raw readings) (CR-WT parasites, 2.5 mM GlcN): 0.1497 and 0.1625 and 0.3987 and 0.36 and 0.5094 and 0.4461 | Growth over 72 h normalised to 0 mM GlcN (= 100) (CR-WT parasites, 2.5 mM GlcN): 66.5703 and 61.9874 and 83.4991 and 67.1517 and 364.413 and 323.18 | Growth over 72 h (raw reading) (CR-WT parasites, 2.5 mM GlcN): 0.1508 and 0.1623 and 0.3842 and 0.3527 and 0.5062 and 0.4479 and 0.1487 and 0.1627 and 0.4133 and 0.3673 and 0.5127 and 0.4444 | Growth over 72 h, 0.25 mM / 0 mM (SLI-N309K, 0.25 mM GlcN): 84.2717 and 93.806 and 99.7943 and 79.4202 | Growth over 72 h, 2.5 mM / 0 mM (SLI-N309K, 2.5 mM GlcN): 52.5042 and 74.3497 and 80.6954 and 57.9574
